In ChEMBL document CHEMBL6121004, “Design, synthesis, and biological evaluation of Ponatinib-based N-Phenylpyrimidine-2-amine derivatives as novel fibroblast growth factor receptor 4 (FGFR4) selective inhibitors” (Eur J Med Chem, 2025):
Active and inactive are the calls of the source. The rule behind the calls is not given here.

What was measured:
[1] = GSH reactivity in potassium phosphate buffer at pH 7.4 assessed as half life at 1 uM measured at 2 to 1440 mins by LC-MS/MS analysis; assay type: physicochemical; conditions: potassium phosphate buffer with GSH, time 2-1440 min
[2] = molecular target: Tyrosine-protein kinase ABL2 (Homo sapiens) (UniProt P42684); assay: Inhibition of ABL2 (unknown origin) at 1 uM relative to control
[3] = molecular target: Platelet-derived growth factor receptor alpha (Homo sapiens) (UniProt P16234); assay: Inhibition of PDGFRalpha (unknown origin) at 1 uM relative to control
[4] = species on record: Homo sapiens; assay: Inhibition of SRC (unknown origin) at 1 uM relative to control
[5] = tested on: Huh-7; assay: Induction of apoptosis in human Huh-7 cells assessed as early apoptotic cells at 0.5 uM incubated for 48 hrs by annexin V-FITC/propidium iodide staining based flow cytometry analysis (reference value: 4.59%); assay type: functional
[6] = tested on: Huh-7; assay: Induction of apoptosis in human Huh-7 cells assessed as late apoptotic cells at 0.5 uM incubated for 48 hrs by annexin V-FITC/propidium iodide staining based flow cytometry analysis (reference value: 5.20%); assay type: functional
[7] = tested on: Huh-7; assay: Induction of apoptosis in human Huh-7 cells assessed as necrotic cells at 0.5 uM incubated for 48 hrs by annexin V-FITC/propidium iodide staining based flow cytometry analysis (reference value: 5.20%); assay type: functional
[8] = tested on: Huh-7; assay: Induction of apoptosis in human Huh-7 cells assessed as late apoptotic cells at 1 uM incubated for 48 hrs by annexin V-FITC/propidium iodide staining based flow cytometry analysis (reference value: 5.20%); assay type: functional
[9] = tested on: Huh-7; assay: Induction of apoptosis in human Huh-7 cells assessed as necrotic cells at 1 uM incubated for 48 hrs by annexin V-FITC/propidium iodide staining based flow cytometry analysis (reference value: 5.20%); assay type: functional
[10] = tested on: Huh-7; assay: Induction of apoptosis in human Huh-7 cells assessed as early apoptotic cells at 0.1 uM incubated for 48 hrs by annexin V-FITC/propidium iodide staining based flow cytometry analysis (reference value: 4.59%); assay type: functional
[11] = tested on: Huh-7; assay: Induction of apoptosis in human Huh-7 cells assessed as late apoptotic cells at 0.1 uM incubated for 48 hrs by annexin V-FITC/propidium iodide staining based flow cytometry analysis (reference value: 5.20%); assay type: functional
[12] = tested on: Hep 3B2; assay: Induction of apoptosis in human Hep3B cells assessed as viable cells at 0.5 uM incubated for 48 hrs by annexin V-FITC/propidium iodide staining based flow cytometry analysis (reference value: 84.91%); assay type: functional; conditions: read-out: Activity
[13] = tested on: Hep 3B2; assay: Induction of apoptosis in human Hep3B cells assessed as late apoptotic cells at 0.5 uM incubated for 48 hrs by annexin V-FITC/propidium iodide staining based flow cytometry analysis (reference value: 5.20%); assay type: functional
[14] = tested on: Hep 3B2; assay: Induction of apoptosis in human Hep3B cells assessed as necrotic cells at 0.5 uM incubated for 48 hrs by annexin V-FITC/propidium iodide staining based flow cytometry analysis (reference value: 5.20%); assay type: functional
[15] = tested on: Hep 3B2; assay: Induction of apoptosis in human Hep3B cells assessed as viable cells at 1 uM incubated for 48 hrs by annexin V-FITC/propidium iodide staining based flow cytometry analysis (reference value: 84.91%); assay type: functional; conditions: read-out: Activity
[16] = tested on: Hep 3B2; assay: Induction of apoptosis in human Hep3B cells assessed as early apoptotic cells at 1 uM incubated for 48 hrs by annexin V-FITC/propidium iodide staining based flow cytometry analysis (reference value: 4.69%); assay type: functional
[17] = tested on: Hep 3B2; assay: Induction of apoptosis in human Hep3B cells assessed as necrotic cells at 1 uM incubated for 48 hrs by annexin V-FITC/propidium iodide staining based flow cytometry analysis (reference value: 5.20%); assay type: functional
[18] = tested on: Hep 3B2; assay: Induction of apoptosis in human Hep3B cells assessed as viable cells at 0.25 uM incubated for 48 hrs by annexin V-FITC/propidium iodide staining based flow cytometry analysis (reference value: 84.91%); assay type: functional; conditions: read-out: Activity
[19] = tested on: Hep 3B2; assay: Induction of apoptosis in human Hep3B cells assessed as early apoptotic cells at 0.25 uM incubated for 48 hrs by annexin V-FITC/propidium iodide staining based flow cytometry analysis (reference value: 4.69%); assay type: functional
[20] = tested on: Hep 3B2; assay: Effect on MAPK level in human Hep3B cells at 0.25 to 1 uM incubated for 48 hrs by Western blot analysis; assay type: functional, cell-based; conditions: dose 0.25-1 µM
[21] = tested on: Hep3B; assay: Inhibition of MAPK phosphorylation in human Hep3B cells at 0.4 uM incubated for 48 hrs by Western blot analysis; assay type: cell-based
[22] = tested on: Huh-7; assay: Downregulation of FAK level in human Huh-7 cells at 0.25 to 1 uM incubated for 48 hrs by Western blot analysis; assay type: functional, cell-based; conditions: dose 0.25-1 µM
[23] = tested on: Huh-7; assay: Antiproliferative activity against human Huh-7 cells assessed as cell viability at […] pre-incubated with compound for 12 hrs followed by compound washout and measured after 4 days; assay type: functional, cell-based; conditions: dose 1.6 µM
[24] = AUC (0 to t) in BALB/c male mouse at 10 mg/kg, po measured upto 24 hrs by LC-MS/MS analysis; assay type: ADME, organism-based; conditions: in vivo
[25] = MRT (0 to t) in BALB/c male mouse at 1 mg/kg, iv measured upto 24 hrs by LC-MS/MS analysis; assay type: ADME, organism-based; conditions: in vivo
[26] = MRT (0 to t) in BALB/c male mouse at 10 mg/kg, po measured upto 24 hrs by LC-MS/MS analysis; assay type: ADME, organism-based; conditions: in vivo
[27] = Volume of distribution at steady state in BALB/c male mouse at 1 mg/kg, iv measured upto 24 hrs by LC-MS/MS analysis; assay type: ADME, organism-based; conditions: in vivo, read-out: Vdss
[28] = Tmax in BALB/c male mouse at 10 mg/kg, po measured upto 24 hrs by LC-MS/MS analysis; assay type: ADME, organism-based; conditions: in vivo
[29] = Oral bioavailability in BALB/c male mouse at 10 mg/kg measured upto 24 hrs by LC-MS/MS analysis; assay type: ADME, organism-based; conditions: in vivo
[30] = tested on: Huh-7; assay: Antitumor activity against human Huh-7 cells xenografted in nude mouse assessed as tumor growth inhibition at 12.5 mg/kg, ip administered for 15 days; assay type: functional; conditions: Huh-7, 360 h, time 15 day, read-out: TGI
[31] = Toxicity in male nude mouse implanted with human Huh-7 cells assessed as body weight loss at 12.5 to 50 mg/kg, ip administered for 15 days; assay type: organism-based; conditions: in vivo, 360 h, dose 12.5-50 mg/kg, time 15 day
[32] = Toxicity in male nude mouse implanted with human Huh-7 cells assessed as lung damage at 12.5 to 50 mg/kg, ip administered for 15 days; assay type: organism-based; conditions: in vivo, 360 h, dose 12.5-50 mg/kg, time 15 day
[33] = Toxicity in male nude mouse implanted with human Huh-7 cells assessed as kidney damage at 12.5 to 50 mg/kg, ip administered for 15 days; assay type: organism-based; conditions: in vivo, 360 h, dose 12.5-50 mg/kg, time 15 day
[34] = Toxicity in male nude mouse implanted with human Huh-7 cells assessed as spleen damage at 12.5 to 50 mg/kg, ip administered for 15 days; assay type: organism-based; conditions: in vivo, 360 h, dose 12.5-50 mg/kg, time 15 day
[35] = Toxicity in male nude mouse implanted with human Huh-7 cells assessed as heart damage at 12.5 to 50 mg/kg, ip administered for 15 days; assay type: organism-based; conditions: in vivo, 360 h, dose 12.5-50 mg/kg, time 15 day
[36] = tested on: Hep 3B2; assay: cells; conditions: Homo sapiens, Hep3B, 72 h
Description: Antiproliferative activity against human Hep3B cells assessed as inhibition of cell proliferation incubated for 72 hrs by MTT assay

[37] = tested on: Huh-7; assay: cells; conditions: Homo sapiens, Huh-7, 72 h
Description: Antiproliferative activity against human Huh-7 cells assessed as inhibition of cell proliferation incubated for 72 hrs by MTT assay

Platelet-derived growth factor receptor alpha (Homo sapiens), sequence (P16234 whole entry): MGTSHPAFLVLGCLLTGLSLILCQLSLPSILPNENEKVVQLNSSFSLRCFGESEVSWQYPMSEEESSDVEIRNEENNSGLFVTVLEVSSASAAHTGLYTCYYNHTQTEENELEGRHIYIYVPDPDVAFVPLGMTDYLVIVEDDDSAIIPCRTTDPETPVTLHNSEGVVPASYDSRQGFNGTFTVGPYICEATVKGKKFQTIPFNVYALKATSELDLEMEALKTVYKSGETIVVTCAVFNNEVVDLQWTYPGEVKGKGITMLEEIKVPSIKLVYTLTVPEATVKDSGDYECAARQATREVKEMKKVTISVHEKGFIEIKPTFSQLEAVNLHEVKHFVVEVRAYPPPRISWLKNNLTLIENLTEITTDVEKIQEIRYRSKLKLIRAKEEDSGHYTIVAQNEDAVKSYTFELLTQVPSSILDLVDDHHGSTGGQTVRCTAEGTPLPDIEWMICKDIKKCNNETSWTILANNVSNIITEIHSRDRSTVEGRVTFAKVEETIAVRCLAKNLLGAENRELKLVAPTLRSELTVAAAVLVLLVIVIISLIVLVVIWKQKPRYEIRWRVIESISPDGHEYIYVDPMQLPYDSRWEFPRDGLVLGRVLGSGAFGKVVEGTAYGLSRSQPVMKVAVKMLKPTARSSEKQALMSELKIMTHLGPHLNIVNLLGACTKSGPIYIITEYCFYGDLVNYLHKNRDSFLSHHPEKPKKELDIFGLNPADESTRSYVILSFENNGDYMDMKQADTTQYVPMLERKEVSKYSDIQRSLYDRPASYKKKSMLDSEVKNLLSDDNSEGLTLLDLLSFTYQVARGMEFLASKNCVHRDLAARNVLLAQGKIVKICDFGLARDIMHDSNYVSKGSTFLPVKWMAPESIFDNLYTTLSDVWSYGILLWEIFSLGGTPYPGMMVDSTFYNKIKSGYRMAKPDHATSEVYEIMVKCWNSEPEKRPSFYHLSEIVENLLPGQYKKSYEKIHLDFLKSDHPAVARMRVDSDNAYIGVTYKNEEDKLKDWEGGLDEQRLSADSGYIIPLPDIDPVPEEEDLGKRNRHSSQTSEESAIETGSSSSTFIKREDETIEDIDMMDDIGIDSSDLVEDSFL
Tyrosine-protein kinase ABL2 (Homo sapiens), sequence (P42684 whole entry): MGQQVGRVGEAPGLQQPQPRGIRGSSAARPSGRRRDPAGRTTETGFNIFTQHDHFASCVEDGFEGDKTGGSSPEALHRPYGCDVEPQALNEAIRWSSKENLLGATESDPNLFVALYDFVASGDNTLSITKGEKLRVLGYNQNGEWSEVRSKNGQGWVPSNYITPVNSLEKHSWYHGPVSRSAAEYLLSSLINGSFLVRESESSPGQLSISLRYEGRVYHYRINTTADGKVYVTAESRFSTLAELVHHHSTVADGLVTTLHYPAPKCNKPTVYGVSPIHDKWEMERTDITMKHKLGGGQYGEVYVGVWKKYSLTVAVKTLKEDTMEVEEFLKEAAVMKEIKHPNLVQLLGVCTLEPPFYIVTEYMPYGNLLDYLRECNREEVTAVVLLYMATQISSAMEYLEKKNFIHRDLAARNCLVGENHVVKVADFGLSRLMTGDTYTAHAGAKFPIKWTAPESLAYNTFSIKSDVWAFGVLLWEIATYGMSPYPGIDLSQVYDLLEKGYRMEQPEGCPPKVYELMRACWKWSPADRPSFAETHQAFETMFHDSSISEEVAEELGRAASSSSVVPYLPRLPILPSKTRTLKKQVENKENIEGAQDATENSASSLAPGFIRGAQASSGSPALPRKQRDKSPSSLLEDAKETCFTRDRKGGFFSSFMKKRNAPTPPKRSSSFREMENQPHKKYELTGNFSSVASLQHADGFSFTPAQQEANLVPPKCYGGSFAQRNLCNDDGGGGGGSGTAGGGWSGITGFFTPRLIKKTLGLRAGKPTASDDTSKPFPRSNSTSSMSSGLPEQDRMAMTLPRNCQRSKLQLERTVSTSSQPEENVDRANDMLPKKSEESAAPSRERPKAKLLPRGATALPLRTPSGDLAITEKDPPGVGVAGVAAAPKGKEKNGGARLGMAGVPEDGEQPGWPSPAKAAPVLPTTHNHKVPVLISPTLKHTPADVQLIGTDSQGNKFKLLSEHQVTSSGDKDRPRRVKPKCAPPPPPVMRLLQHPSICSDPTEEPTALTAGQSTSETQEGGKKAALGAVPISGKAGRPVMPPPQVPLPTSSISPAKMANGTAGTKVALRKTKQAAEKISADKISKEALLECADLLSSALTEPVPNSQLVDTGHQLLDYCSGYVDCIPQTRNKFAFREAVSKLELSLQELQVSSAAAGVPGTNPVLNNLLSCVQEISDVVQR

half-life at 1 µM [1]: 1.35 h
inhibition [2]: < 70%
inhibition [3]: < 70%
inhibition [4]: < 70%
AUC(0-t) at 24 h [24]: 318 ng·h/mL
MRT last at 24 h [25]: 0.77 h
MRT last at 24 h [26]: 2.65 h
Vd [27]: 3.52 L/kg
Tmax [28]: 1 h
bioavailability [29]: 17.8%
IC50 [36]: 70 nM
IC50 [37]: 150 nM
Compound: C=CC(=O)Nc1cccc(C)c1Nc1ncc(C#Cc2cccc(C(=O)Nc3ccc(CN4CCN(C)CC4)c(C(F)(F)F)c3)c2)cn1
Activity [5]: 5.07%
Activity [6]: 11.2%
Activity [7]: 8.41%
Activity [8]: 25.23%
Activity [9]: 9.67%
Activity [10]: 3.69%
Activity [11]: 5.12%
viability at 0.5 µM [12]: 68.9%
Activity [13]: 18.41%
Activity [14]: 6.93%
viability at 1 µM [15]: 63.2%
Activity [16]: 9.61%
Activity [17]: 5.13%
viability at 0.25 µM [18]: 80.8%
Activity [19]: 4.38%
Activity [20]: Active
inhibition [21]: Active
Activity [22]: Active
Activity [23]: Active
inhibition in vivo at 12.5 mg/kg [30]: 34.9%
Activity [31]: Non-toxic
Activity [32]: Non-toxic
Activity [33]: Non-toxic
Activity [34]: Non-toxic
Activity [35]: Non-toxic
